Experimental data: publication PMC12406203 (Journal of Medicinal Chemistry, 2025)

Key:
Experiment in all cases: KINOMEscan
Type in all cases: binding
RIOK2 = molecular target: T1, RIOK2 (Homo sapiens, UniProt Q9BVS4)
T1 construct: purchased Eurofins DiscoverX, LLC; host or cells: E. coli BL21-derived host (T7 phage) or HEK-293

ROCK2 = molecular target: T2, ROCK2 (Homo sapiens, UniProt O75116)
T2 construct: purchased Eurofins DiscoverX, LLC; host or cells: E. coli BL21-derived host (T7 phage) or HEK-293

MLK1 = molecular target: T3, MLK1 (Homo sapiens, UniProt P80192)
T3 construct: purchased Eurofins DiscoverX, LLC; host or cells: E. coli (BL21-derived, T7 phage) or HEK-293

PIM1 = molecular target: T4, PIM1 (Homo sapiens, UniProt P11309)
T4 construct: purchased Eurofins DiscoverX, LLC; host or cells: E. coli BL21-derived host (T7 phage) or HEK-293

BMPR2 = molecular target: T5, BMPR2 (Homo sapiens, UniProt Q13873)
T5 construct: purchased Eurofins DiscoverX, LLC; host or cells: E. coli BL21-derived (T7 phage) or HEK-293
T5 sequence (Q13873 27-1038): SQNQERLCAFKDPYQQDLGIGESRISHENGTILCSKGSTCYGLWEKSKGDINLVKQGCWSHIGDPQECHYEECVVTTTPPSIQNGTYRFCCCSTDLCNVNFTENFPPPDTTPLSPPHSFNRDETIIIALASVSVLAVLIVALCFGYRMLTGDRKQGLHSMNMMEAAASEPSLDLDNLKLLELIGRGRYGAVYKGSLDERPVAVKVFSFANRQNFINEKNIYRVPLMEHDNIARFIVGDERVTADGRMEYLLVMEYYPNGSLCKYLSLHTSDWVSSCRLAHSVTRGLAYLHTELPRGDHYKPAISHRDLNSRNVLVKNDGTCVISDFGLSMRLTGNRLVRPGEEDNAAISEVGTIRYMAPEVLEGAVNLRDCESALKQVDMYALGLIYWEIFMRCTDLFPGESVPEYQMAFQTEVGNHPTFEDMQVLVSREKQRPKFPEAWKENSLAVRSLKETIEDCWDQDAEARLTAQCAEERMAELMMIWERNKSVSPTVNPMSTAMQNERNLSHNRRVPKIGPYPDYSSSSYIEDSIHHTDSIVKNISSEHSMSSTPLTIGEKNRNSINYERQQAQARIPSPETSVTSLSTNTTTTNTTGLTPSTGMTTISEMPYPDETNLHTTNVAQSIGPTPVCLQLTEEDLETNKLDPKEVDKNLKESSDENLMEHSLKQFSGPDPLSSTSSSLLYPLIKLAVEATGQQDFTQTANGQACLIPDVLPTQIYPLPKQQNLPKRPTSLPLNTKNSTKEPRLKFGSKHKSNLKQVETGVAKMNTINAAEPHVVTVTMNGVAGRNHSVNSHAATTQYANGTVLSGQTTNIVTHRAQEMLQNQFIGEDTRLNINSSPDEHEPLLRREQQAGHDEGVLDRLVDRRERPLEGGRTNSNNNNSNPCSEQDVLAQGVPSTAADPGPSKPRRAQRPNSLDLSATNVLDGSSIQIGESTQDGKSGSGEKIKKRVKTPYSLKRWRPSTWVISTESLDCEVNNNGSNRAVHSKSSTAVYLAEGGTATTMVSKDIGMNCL

[1] = molecular target: T6, JAK3(JH1domain-catalytic) (Homo sapiens, UniProt P52333)
T6 construct: JAK3(JH1domain-; purchased Eurofins DiscoverX, LLC; host or cells: E. coli (T7 phage) or HEK-293

SRPK3 = molecular target: T7, SRPK3 (Homo sapiens, UniProt Q9UPE1)
T7 construct: purchased Eurofins DiscoverX, LLC; host or cells: E. coli BL21-derived host (T7 phage) or HEK-293

MEK2 = molecular target: T8, MEK2 (Homo sapiens, UniProt P36507)
T8 construct: purchased Eurofins DiscoverX, LLC; host or cells: E. coli (BL21-derived, T7 phage) or HEK-293

BTK = molecular target: T9, BTK (Homo sapiens, UniProt Q06187)
T9 construct: purchased Eurofins DiscoverX, LLC; host or cells: E. coli BL21-derived (T7 phage) or HEK-293

FGFR3 = molecular target: T10, FGFR3 (Homo sapiens, UniProt P22607)
T10 construct: purchased Eurofins DiscoverX, LLC; host or cells: E. coli (T7 phage) or HEK-293

CDK9 = molecular target: T11, CDK9 (Homo sapiens, UniProt P50750)
T11 construct: purchased Eurofins DiscoverX, LLC; host or cells: E. coli (T7 phage) or HEK-293

RAF1 = molecular target: T12, RAF1 (Homo sapiens, UniProt P04049)
T12 construct: purchased Eurofins DiscoverX, LLC; host or cells: E. coli BL21-derived host (T7 phage) or HEK-293

PDGFRA = molecular target: T13, PDGFRA (Homo sapiens, UniProt P16234)
T13 construct: purchased Eurofins DiscoverX, LLC; host or cells: E. coli BL21-derived host (T7 phage) or HEK-293

BRAF(V600E) = molecular target: T14, BRAF(V600E) (Homo sapiens, UniProt P15056, V600E)
T14 construct: purchased Eurofins DiscoverX, LLC; host or cells: E. coli BL21-derived (T7 phage) or HEK-293
T14 sequence (P15056 whole entry V600E): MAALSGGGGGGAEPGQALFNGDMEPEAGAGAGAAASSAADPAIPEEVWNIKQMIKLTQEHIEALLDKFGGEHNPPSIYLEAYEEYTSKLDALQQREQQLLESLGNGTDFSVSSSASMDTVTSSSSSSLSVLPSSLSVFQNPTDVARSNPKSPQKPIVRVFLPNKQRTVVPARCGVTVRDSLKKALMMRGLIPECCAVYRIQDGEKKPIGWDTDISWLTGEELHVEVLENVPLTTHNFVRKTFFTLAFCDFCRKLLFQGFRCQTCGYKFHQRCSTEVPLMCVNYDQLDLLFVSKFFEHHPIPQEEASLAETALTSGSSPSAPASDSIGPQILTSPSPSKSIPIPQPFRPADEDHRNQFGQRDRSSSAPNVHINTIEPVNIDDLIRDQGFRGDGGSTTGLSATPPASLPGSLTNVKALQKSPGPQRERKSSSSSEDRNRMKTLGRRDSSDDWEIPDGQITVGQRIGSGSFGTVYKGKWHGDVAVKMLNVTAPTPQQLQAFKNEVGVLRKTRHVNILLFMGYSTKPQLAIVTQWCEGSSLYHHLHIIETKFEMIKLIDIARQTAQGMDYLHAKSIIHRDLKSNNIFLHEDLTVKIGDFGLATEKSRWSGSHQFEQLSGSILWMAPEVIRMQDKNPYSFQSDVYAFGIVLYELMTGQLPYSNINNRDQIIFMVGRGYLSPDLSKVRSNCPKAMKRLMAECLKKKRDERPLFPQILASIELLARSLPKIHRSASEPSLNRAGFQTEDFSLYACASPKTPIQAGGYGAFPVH

T7 sequence (Q9UPE1 whole entry): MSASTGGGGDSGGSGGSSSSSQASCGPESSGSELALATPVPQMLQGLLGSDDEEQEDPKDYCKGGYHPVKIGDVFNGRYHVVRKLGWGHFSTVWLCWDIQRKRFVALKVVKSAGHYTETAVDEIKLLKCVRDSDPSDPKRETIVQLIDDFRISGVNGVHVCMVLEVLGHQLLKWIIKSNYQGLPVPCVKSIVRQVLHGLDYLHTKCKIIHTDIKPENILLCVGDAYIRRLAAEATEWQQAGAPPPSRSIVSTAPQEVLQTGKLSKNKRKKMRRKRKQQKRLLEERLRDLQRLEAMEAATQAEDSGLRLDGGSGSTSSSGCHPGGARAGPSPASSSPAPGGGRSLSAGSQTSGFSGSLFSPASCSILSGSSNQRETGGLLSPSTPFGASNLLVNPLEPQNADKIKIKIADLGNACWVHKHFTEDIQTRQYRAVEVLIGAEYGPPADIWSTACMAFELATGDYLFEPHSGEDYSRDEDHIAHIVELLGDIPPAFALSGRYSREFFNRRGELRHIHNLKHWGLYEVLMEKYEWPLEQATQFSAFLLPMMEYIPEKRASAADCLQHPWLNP
T13 sequence (P16234 24-1089): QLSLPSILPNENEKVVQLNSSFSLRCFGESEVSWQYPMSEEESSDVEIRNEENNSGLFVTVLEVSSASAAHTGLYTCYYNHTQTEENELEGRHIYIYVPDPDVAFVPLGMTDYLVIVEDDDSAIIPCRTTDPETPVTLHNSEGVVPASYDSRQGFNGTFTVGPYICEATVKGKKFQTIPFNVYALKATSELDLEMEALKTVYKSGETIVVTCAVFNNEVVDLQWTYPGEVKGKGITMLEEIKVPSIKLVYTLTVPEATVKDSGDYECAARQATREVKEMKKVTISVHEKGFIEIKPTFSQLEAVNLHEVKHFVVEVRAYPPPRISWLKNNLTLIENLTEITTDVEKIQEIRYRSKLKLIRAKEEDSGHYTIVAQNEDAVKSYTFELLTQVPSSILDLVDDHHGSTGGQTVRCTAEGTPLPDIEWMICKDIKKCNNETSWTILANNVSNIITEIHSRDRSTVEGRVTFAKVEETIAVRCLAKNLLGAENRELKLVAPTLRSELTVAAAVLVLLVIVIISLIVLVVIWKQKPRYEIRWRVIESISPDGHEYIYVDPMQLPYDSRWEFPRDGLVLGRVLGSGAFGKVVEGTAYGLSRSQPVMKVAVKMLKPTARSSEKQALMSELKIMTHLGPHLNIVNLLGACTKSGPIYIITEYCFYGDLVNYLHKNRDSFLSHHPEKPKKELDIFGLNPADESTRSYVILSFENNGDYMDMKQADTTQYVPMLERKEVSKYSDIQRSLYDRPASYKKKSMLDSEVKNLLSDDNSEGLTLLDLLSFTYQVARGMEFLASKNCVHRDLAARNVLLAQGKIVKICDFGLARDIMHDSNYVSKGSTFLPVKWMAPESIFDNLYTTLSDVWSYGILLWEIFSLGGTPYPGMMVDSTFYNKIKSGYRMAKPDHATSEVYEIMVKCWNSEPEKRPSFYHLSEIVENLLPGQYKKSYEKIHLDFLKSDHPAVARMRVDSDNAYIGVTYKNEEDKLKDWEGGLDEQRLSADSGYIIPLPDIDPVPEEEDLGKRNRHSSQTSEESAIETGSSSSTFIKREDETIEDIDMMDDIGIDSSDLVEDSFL
T3 sequence (P80192 whole entry): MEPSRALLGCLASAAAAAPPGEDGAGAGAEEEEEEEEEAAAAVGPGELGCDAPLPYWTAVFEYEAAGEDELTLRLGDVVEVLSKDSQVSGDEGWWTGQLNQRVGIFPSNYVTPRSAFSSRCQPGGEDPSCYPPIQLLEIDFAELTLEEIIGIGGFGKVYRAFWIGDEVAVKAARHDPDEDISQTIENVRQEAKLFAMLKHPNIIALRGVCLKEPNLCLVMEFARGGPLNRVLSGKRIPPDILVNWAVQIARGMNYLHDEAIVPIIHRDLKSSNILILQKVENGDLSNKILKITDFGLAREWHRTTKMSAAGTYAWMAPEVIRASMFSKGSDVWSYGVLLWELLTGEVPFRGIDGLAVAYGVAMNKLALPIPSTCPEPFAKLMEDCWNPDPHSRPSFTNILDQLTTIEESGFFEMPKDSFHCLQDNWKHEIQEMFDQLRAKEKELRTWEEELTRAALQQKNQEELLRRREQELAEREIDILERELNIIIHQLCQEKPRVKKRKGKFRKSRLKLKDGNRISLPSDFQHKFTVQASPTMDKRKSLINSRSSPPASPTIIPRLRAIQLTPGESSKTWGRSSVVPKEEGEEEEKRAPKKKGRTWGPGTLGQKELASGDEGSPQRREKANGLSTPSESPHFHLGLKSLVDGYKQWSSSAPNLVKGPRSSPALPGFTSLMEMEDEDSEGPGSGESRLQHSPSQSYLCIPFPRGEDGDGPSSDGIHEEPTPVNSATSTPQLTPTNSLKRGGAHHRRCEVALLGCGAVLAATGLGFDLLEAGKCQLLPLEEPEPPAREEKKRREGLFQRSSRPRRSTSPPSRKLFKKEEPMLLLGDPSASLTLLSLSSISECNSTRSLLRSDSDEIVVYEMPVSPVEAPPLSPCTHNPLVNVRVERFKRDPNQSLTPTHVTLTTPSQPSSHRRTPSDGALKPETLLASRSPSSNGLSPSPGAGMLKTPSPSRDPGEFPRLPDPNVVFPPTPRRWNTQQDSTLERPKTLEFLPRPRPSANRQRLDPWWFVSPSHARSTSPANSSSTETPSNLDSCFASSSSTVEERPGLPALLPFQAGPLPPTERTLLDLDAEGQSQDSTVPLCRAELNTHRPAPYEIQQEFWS
T6 sequence (P52333 822-1111 limits assumed): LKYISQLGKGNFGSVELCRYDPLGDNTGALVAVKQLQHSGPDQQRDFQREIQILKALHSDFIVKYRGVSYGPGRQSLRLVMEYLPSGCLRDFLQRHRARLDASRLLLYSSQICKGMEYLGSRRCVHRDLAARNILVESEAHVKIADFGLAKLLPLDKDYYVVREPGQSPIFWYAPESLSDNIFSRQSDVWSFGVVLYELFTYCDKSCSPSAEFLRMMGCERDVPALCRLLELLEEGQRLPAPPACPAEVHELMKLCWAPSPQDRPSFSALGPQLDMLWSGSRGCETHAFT
T1 sequence (Q9BVS4 whole entry): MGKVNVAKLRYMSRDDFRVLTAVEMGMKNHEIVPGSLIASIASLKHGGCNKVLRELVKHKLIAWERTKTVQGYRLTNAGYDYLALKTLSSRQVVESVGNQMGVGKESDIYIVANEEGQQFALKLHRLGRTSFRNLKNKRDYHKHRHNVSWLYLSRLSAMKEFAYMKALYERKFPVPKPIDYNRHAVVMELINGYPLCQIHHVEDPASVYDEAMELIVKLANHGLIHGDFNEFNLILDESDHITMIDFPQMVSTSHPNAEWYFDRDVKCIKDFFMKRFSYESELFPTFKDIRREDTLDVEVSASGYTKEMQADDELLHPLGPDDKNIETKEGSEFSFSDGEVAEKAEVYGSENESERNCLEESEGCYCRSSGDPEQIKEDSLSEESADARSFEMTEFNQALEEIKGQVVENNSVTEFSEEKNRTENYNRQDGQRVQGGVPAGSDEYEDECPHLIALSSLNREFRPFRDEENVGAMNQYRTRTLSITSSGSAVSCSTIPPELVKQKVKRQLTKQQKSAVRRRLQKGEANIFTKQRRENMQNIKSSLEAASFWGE
T8 sequence (P36507 whole entry): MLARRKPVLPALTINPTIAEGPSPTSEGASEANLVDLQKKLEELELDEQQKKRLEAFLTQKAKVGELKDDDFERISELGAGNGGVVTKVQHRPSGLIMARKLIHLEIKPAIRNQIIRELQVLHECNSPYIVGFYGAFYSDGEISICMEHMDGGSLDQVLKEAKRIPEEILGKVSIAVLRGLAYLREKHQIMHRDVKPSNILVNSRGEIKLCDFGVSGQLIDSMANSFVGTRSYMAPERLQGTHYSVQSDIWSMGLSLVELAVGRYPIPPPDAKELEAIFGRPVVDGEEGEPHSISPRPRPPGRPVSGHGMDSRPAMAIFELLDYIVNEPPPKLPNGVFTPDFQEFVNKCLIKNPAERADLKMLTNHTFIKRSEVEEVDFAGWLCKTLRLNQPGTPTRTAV

Row | SMILES | RA @ 1000nM (RIOK2) [%] | RA @ 10000nM (RIOK2) [%] | RA @ 1000nM (ROCK2) [%] | RA @ 10000nM (ROCK2) [%] | RA @ 1000nM (MLK1) [%] | RA @ 10000nM (MLK1) [%] | RA @ 1000nM (PIM1) [%] | RA @ 10000nM (PIM1) [%] | RA @ 1000nM (BMPR2) [%] | RA @ 10000nM (BMPR2) [%] | RA @ 1000nM [1] [%] | RA @ 10000nM [1] [%] | RA @ 1000nM (SRPK3) [%] | RA @ 10000nM (SRPK3) [%] | RA @ 1000nM (MEK2) [%] | RA @ 10000nM (MEK2) [%] | RA @ 1000nM (BTK) [%] | RA @ 10000nM (BTK) [%] | RA @ 1000nM (FGFR3) [%] | RA @ 10000nM (FGFR3) [%] | other results
1 | CN(C)CCNC(=O)c1cc2c(cnn2CC2CCCCC2)cc1Cc1ccc(F)cc1F [Compound 95, 1-(Cyclohexylmethyl)-5-(2,4-difluorobenzyl)-N-(2-(dimethylamino)ethyl)-1H-indazole-6-carboxamide] | 88 | 81 | 83 | 100 | 100 | 90 | 100 | 94 | 89 | 92 | 100 | 100 | 92 | 99 | 95 | 100 | 100 | 100 | 100 | 92 | RA @ 1000nM (CDK9): 100%; RA @ 10000nM (CDK9): 93%; RA @ 1000nM (RAF1): 100%; RA @ 10000nM (RAF1): 100%; RA @ 1000nM (PDGFRA): 92%; RA @ 10000nM (PDGFRA): 92%; RA @ 1000nM (BRAF(V600E)): 98%; RA @ 10000nM (BRAF(V600E)): 100%
2 | CC(C)Cn1ncc2cc(Cc3ccc(F)cc3F)c(C(=O)NCCN(C)C)cc21 [Compound 94, 5-(2,4-Difluorobenzyl)-N-(2-(dimethylamino)ethyl)-1-isobutyl-1H-indazole-6-carboxamide] | 85 | 92 | 87 | 96 | 100 | 100 | 95 | 100 | 86 | 95 | 100 | 100 | 77 | 100 | 86 | 80 | 100 | 100 | 100 | 100 | RA @ 1000nM (CDK9): 100%; RA @ 10000nM (CDK9): 100%; RA @ 1000nM (RAF1): 100%; RA @ 10000nM (RAF1): 100%; RA @ 1000nM (PDGFRA): 96%; RA @ 10000nM (PDGFRA): 76%; RA @ 1000nM (BRAF(V600E)): 100%; RA @ 10000nM (BRAF(V600E)): 100%
